Results reported in PMC11395244, “Ginsenoside Rh2 Alleviates LPS-Induced Inflammatory Responses by Binding to TLR4/MD-2 and Blocking TLR4 Dimerization” (International Journal of Molecular Sciences, 2024).

Molecular target: T1, MD-2 (measured as TLR4/MD-2 complex) (Homo sapiens, UniProt Q9Y6Y9)
T1 construct: gene LY96; recombinant human TLR4/MD-2; His-Flag TLR4/MD-2 protein; with TLR4
Assay: SPR (Biacore T200, CM5 chip, immobilised TLR4/MD-2 complex)
Format: binding

T1 sequence (Q9Y6Y9 19-160): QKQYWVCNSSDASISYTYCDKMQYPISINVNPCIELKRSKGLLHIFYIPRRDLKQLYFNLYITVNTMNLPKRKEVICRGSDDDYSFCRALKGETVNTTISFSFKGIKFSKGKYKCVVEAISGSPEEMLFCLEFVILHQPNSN
T1 sequence (O00206 24-839 partner): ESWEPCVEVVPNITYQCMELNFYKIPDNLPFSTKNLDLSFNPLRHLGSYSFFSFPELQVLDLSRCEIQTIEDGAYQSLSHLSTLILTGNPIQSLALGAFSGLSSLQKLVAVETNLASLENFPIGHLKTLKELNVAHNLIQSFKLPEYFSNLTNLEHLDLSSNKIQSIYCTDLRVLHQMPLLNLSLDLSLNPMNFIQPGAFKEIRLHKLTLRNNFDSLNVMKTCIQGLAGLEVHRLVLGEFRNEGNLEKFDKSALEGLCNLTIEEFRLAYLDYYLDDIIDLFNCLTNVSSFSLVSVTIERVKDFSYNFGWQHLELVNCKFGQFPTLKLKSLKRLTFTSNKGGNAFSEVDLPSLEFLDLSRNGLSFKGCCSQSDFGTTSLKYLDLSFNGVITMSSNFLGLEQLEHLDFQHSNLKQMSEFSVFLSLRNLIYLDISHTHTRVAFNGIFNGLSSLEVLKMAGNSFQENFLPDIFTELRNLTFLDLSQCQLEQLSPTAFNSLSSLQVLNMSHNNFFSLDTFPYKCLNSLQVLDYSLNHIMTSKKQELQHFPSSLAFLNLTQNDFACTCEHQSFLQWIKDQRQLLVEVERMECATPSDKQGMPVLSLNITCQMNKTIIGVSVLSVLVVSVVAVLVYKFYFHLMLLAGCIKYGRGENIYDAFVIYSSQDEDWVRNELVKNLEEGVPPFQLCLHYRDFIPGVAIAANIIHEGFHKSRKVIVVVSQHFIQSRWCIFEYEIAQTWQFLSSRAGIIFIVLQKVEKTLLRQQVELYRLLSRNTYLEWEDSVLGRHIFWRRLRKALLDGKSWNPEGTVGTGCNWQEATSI

Structure (SMILES): CC(C)=CCC[C@](C)(O)[C@H]1CC[C@]2(C)[C@@H]1[C@H](O)C[C@@H]1[C@@]3(C)CC[C@H](O[C@@H]4O[C@H](CO)[C@@H](O)[C@H](O)[C@H]4O)C(C)(C)[C@@H]3CC[C@]12C [G-Rh2, Ginsenoside Rh2]
- Kd: 71.2 µM
